{
  "source": "ChEMBL document CHEMBL6121046",
  "about": "“Discovery of Novel Hydrazide-Based HDAC3 Inhibitors as Epigenetic Immunomodulators for Cancer Immunotherapy” (J Med Chem, 2025)",
  "key": {"[1]": {"experiment": "AUC (0 to t) in Sprague-Dawley rat at 20 mg/kg, po measured upto 12 hrs by LC-MS/MS analysis", "assay_type": "ADME, organism-based", "settings": "in vivo"}, "[2]": {"experiment": "Toxicity in C57BL/6 mouse allografted with mouse MC38 cells assessed as alkaline phosphatase (AKP) level in serum at 50 mg/kg, po treated 5 days after cell inoculation 19 th day", "assay_type": "organism-based", "settings": "in vivo, 360 h, time 15 day"}, "[3]": {"experiment": "Tmax in Sprague-Dawley rat at 20 mg/kg, po measured upto 12 hrs by LC-MS/MS analysis", "assay_type": "ADME, organism-based", "settings": "in vivo"}, "[4]": {"experiment": "AUC (0 to infinity) in Sprague-Dawley rat at 20 mg/kg, iv measured upto 12 hrs by LC-MS/MS analysis", "assay_type": "ADME, organism-based", "settings": "in vivo"}, "Mus musculus [5]": {"test_system": "Mus musculus", "experiment": "(§1) Immunomodulatory effect in C57BL/6 mouse allografted mouse MC38 cells assessed as increase in tumor infiltrating lymphocytes by measuring increase in CD4+ T helper cells in mouse lymph nodes in presence of NP19 PD-L1 inhibitor at 50 mg/kg, po treated 5 days after cell inoculation 19 th day by flow cytometry analysis (reference value: 15.5%)", "assay_type": "functional", "settings": "time 15 day"}, "[6]": {"experiment": "Half life in Sprague-Dawley rat at 20 mg/kg, po measured upto 12 hrs by LC-MS/MS analysis", "assay_type": "ADME, organism-based", "settings": "in vivo"}, "[7]": {"experiment": "MRT (0 to infinity) in Sprague-Dawley rat at 20 mg/kg, iv measured upto 12 hrs by LC-MS/MS analysis", "assay_type": "ADME, organism-based", "settings": "in vivo"}, "MC-38 [8]": {"test_system": "MC-38", "experiment": "Induction of mitochondrial membrane damage in mouse MC38 cells assessed as decrease in JC-1 aggregation by measuring red fluorescence at 4 uM measured after 48 hrs (reference value: 96.70%)", "assay_type": "functional", "set-up": "scale not given: the % may be the effect or the level left"}, "MC-38 [9]": {"test_system": "MC-38", "experiment": "Induction of mitochondrial membrane damage in mouse MC38 cells assessed as increase in JC-1 monomers by measuring green fluorescence at 8 uM measured after 48 hrs (reference value: 3.13%)", "assay_type": "functional"}, "Mus musculus [10]": {"test_system": "Mus musculus", "experiment": "as §1, with “tumor” for “mouse lymph nodes”, “2.57%)” for “15.5%)”", "assay_type": "functional", "settings": "time 15 day"}, "[11]": {"experiment": "Toxicity in C57BL/6 mouse allografted with mouse MC38 cells assessed as pathological changes in liver at 50 mg/kg, po treated 5 days after cell inoculation 19 th day by hematoxylin and eosin analysis", "assay_type": "organism-based", "settings": "in vivo, 360 h, time 15 day"}, "Mus musculus [12]": {"test_system": "Mus musculus", "experiment": "as §1, with “[…]” for “CD4+”, “spleen” for “lymph nodes”, “13.6%)” for “15.5%)”", "assay_type": "functional", "settings": "time 15 day"}, "Mus musculus [13]": {"test_system": "Mus musculus", "experiment": "Induction of acetylated H3 level in tumor in C57BL/6 mouse allografted with mouse MC38 cells in presence of NP19 PD-L1 inhibitor at 50 mg/kg, po treated 5 days after cell inoculation 19 th day by immunofluorescence analysis", "assay_type": "functional, organism-based", "settings": "time 15.0 day"}, "[14]": {"experiment": "Clearance in Sprague-Dawley rat at 20 mg/kg, iv measured upto 12 hrs by LC-MS/MS analysis", "assay_type": "ADME, organism-based", "settings": "in vivo"}, "[15]": {"experiment": "Oral bioavailability in Sprague-Dawley rat at 20 mg/kg measured upto 12 hrs by LC-MS/MS analysis", "assay_type": "ADME, organism-based", "settings": "in vivo"}, "[16]": {"experiment": "Clearance in Sprague-Dawley rat at 20 mg/kg, po measured upto 12 hrs by LC-MS/MS analysis", "assay_type": "ADME, organism-based", "settings": "in vivo"}, "MC-38 [17]": {"test_system": "MC-38", "experiment": "In vivo antitumor activity against mouse MC38 cells allografted in C57BL/6 mouse assessed as apoptosis in tumor at 50 mg/kg, po treated 5 days after cell inoculation 19 th day relative to control", "assay_type": "functional, organism-based", "settings": "time 15.0 day"}, "Mus musculus [18]": {"test_system": "Mus musculus", "experiment": "as §1, with “nodes” for “nodes in presence of NP19 PD-L1 inhibitor”", "assay_type": "functional", "settings": "time 15 day"}, "Mus musculus [19]": {"test_system": "Mus musculus", "experiment": "Immunomodulatory effect in C57BL/6 mouse allografted with mouse MC38 cells assessed as increase in tumor infiltrating lymphocytes by measuring increase in CD3+ CD4+ cells in presence of NP19 PD-L1 inhibitor at 50 mg/kg, po treated 5 days after cell inoculation 19 th day by flow cytometry analysis", "assay_type": "functional, organism-based", "settings": "time 15.0 day"}, "MC-38 [20]": {"test_system": "MC-38", "experiment": "In vivo antitumor activity against mouse MC38 cells allografted in C57BL/6 mouse assessed as decrease in […] positive cells in tumor at 50 mg/kg, po treated 5 days after cell inoculation 19 th day by immunofluorescence analysis", "assay_type": "functional, organism-based", "settings": "time 15.0 day"}, "MC-38 [21]": {"test_system": "MC-38", "experiment": "In vivo antitumor activity against mouse MC38 cells allografted in C57BL/6 mouse assessed as increase in Tunel-positive cells in tumor at 50 mg/kg, po treated 5 days after cell inoculation 19 th day by immunofluorescence analysis", "assay_type": "functional, organism-based", "settings": "time 15.0 day"}, "Mus musculus [22]": {"test_system": "Mus musculus", "experiment": "(§2) Immunomodulatory effect in C57BL/6 mouse allografted mouse MC38 cells assessed as increase in tumor infiltrating lymphocytes by measuring increase in CD8+ T […] cells in tumor at 50 mg/kg, po treated 5 days after cell inoculation 19 th day by flow cytometry analysis (reference value: 2.32%)", "assay_type": "functional", "settings": "time 15 day"}, "[23]": {"experiment": "Toxicity in C57BL/6 mouse allografted with mouse MC38 cells assessed as pathological changes in spleen at 50 mg/kg, po treated 5 days after cell inoculation 19 th day by hematoxylin and eosin analysis", "assay_type": "organism-based", "settings": "in vivo, 360 h, time 15 day"}, "[24]": {"experiment": "Volume of distribution at steady state in Sprague-Dawley rat at 20 mg/kg, po measured upto 12 hrs by LC-MS/MS analysis", "assay_type": "ADME, organism-based", "settings": "in vivo"}, "Mus musculus [25]": {"test_system": "Mus musculus", "experiment": "as §2, with “[…] in mouse spleen at 50” for “cells in tumor at 50”, “(reference value: 13.6%)” for “(reference value: 2.32%)”", "assay_type": "functional", "settings": "time 15 day"}, "[26]": {"experiment": "Toxicity in C57BL/6 mouse allografted with mouse MC38 cells assessed as creatinine (CRE) level in serum at 50 mg/kg, po treated 5 days after cell inoculation 19 th day", "assay_type": "organism-based", "settings": "in vivo, 360 h, time 15 day"}, "[27]": {"experiment": "Toxicity in C57BL/6 mouse allografted with mouse MC38 cells assessed as pathological changes in lung at 50 mg/kg, po treated 5 days after cell inoculation 19 th day by hematoxylin and eosin analysis", "assay_type": "organism-based", "settings": "in vivo, 360 h, time 15 day"}, "Mus musculus [28]": {"test_system": "Mus musculus", "experiment": "Immunomodulatory effect in C57BL/6 mouse allografted mouse MC38 cells assessed as increase in tumor infiltrating lymphocytes by measuring increase in CD4+ T helper cells in mouse spleen at 50 mg/kg, po treated 5 days after cell inoculation 19 th day by flow cytometry analysis (reference value: 10.8%)", "assay_type": "functional", "settings": "time 15 day"}, "Mus musculus [29]": {"test_system": "Mus musculus", "experiment": "Immunomodulatory effect in C57BL/6 mouse allografted mouse MC38 cells assessed as increase in tumor infiltrating lymphocytes by measuring increase in CD4+ T helper cells in mouse blood at 50 mg/kg, po treated 5 days after cell inoculation 19 th day by flow cytometry analysis (reference value: 0.27%)", "assay_type": "functional", "settings": "time 15 day"}, "MC-38 [30]": {"test_system": "MC-38", "experiment": "Induction of mitochondrial membrane damage in mouse MC38 cells assessed as increase in JC-1 monomers by measuring green fluorescence at 1 uM measured after 48 hrs (reference value: 3.13%)", "assay_type": "functional"}, "[31]": {"experiment": "MRT (0 to t) in Sprague-Dawley rat at 20 mg/kg, iv measured upto 12 hrs by LC-MS/MS analysis", "assay_type": "ADME, organism-based", "settings": "in vivo"}, "[32]": {"experiment": "Toxicity in C57BL/6 mouse allografted with mouse MC38 cells assessed as pathological changes in heart at 50 mg/kg, po treated 5 days after cell inoculation 19 th day by hematoxylin and eosin analysis", "assay_type": "organism-based", "settings": "in vivo, 360 h, time 15 day"}, "MC-38 [33]": {"test_system": "MC-38", "experiment": "In vivo antitumor activity against mouse MC38 cells allografted in C57BL/6 mouse assessed as tumor growth inhibition at 50 mg/kg, po treated 5 days after cell inoculation 19 th day relative to control", "assay_type": "functional", "settings": "MC-38, 360 h, time 15 day, read-out: TGI"}},
  "note": "Calls of active or inactive are those of the source. The calls are words filed in the database; no cut-off is given here.",
  "data": [
    {"smiles": "CCCNNC(=O)c1ccc(CNC(=O)c2cnc(-c3ccc4occc4c3)[nH]2)cc1", "values": [
      {"measurement": "AUC(0-t) at 12 h", "setting": "[1]", "value": 1420, "unit": "ng·h/mL"},
      {"measurement": "Activity", "setting": "[2]", "value": "Non-toxic"},
      {"measurement": "Tmax", "setting": "[3]", "value": 0.88, "unit": "h"},
      {"measurement": "AUC", "setting": "[4]", "value": 1249.2, "unit": "ng·h/mL"},
      {"measurement": "Activity", "setting": "Mus musculus [5]", "value": 20, "unit": "%"},
      {"measurement": "half-life", "setting": "[6]", "value": 3.13, "unit": "h"},
      {"measurement": "MRT inf", "setting": "[7]", "value": 1.2, "unit": "h"},
      {"measurement": "Activity", "setting": "MC-38 [8]", "value": 72.13, "unit": "%"},
      {"measurement": "Activity", "setting": "MC-38 [9]", "value": 28.37, "unit": "%"},
      {"measurement": "Activity", "setting": "Mus musculus [10]", "value": 3.11, "unit": "%"},
      {"measurement": "Activity", "setting": "[11]", "value": "Non-toxic"},
      {"measurement": "Activity", "setting": "Mus musculus [12]", "value": 17.4, "unit": "%"},
      {"measurement": "Activity", "setting": "Mus musculus [13]", "value": "Active"},
      {"measurement": "CL", "setting": "[14]", "value": 27.8, "unit": "mL/min/kg"},
      {"measurement": "F", "setting": "[15]", "value": 11.5, "unit": "%"},
      {"measurement": "CL/F", "setting": "[16]", "value": 259, "unit": "mL/min/kg"},
      {"measurement": "Activity", "setting": "MC-38 [17]", "value": "Active"},
      {"measurement": "Activity", "setting": "Mus musculus [18]", "value": 20.3, "unit": "%"},
      {"measurement": "Activity", "setting": "Mus musculus [19]", "value": "Active"},
      {"measurement": "Activity", "setting": "MC-38 [20]", "value": "Active"},
      {"measurement": "Activity", "setting": "MC-38 [21]", "value": "Active"},
      {"measurement": "Activity", "setting": "Mus musculus [22]", "value": 5.29, "unit": "%"},
      {"measurement": "Activity", "setting": "[23]", "value": "Non-toxic"},
      {"measurement": "Vdss", "setting": "[24]", "value": 72.81, "unit": "L/kg"},
      {"measurement": "Activity", "setting": "Mus musculus [25]", "value": 14.1, "unit": "%"},
      {"measurement": "Activity", "setting": "[26]", "value": "Non-toxic"},
      {"measurement": "Activity", "setting": "[27]", "value": "Non-toxic"},
      {"measurement": "Activity", "setting": "Mus musculus [28]", "value": 12.9, "unit": "%"},
      {"measurement": "Activity", "setting": "Mus musculus [29]", "value": 0.84, "unit": "%"},
      {"measurement": "Activity", "setting": "MC-38 [30]", "value": 6.34, "unit": "%"},
      {"measurement": "MRT last at 12 h", "setting": "[31]", "value": 1.19, "unit": "h"},
      {"measurement": "Activity", "setting": "[32]", "value": "Non-toxic"},
      {"measurement": "inhibition in vivo at 50 mg/kg", "setting": "MC-38 [33]", "value": 63, "unit": "%"}
    ]}
  ]
}
